Measurements taken from US8445531B2, “Rodenticidal compounds, composition including same and use thereof for controlling harmful rodents” (priority 2010, dated 2013).

Legend:
rats [1] = test: Mortality follow-up in rats after repeated administration; type: in vivo, rat
Description: The rodenticidal effectiveness and the remanence of the compounds according to the invention have been tested in comparison with the rodenticidal product of reference bromadiolone, with bromadiolone being the least remanent of all of the second-generation anticoagulants currently used in combating rodents.
For this test, the compound of formula (II) that is obtained by implementing the process disclosed above is used.
(§1) 3 lots of 5 rats were used for the compound of formula (II), and 2 lots of 4 rats were used for bromadiolone.
(§2) 3 doses of 10 mg/kg of rat were administered intraperitoneally in succession at T0, T24h and T48h.
1 lot of rats was used to follow the mortality rate brought about by the 3 administrations of the compound of formula (II) according to the invention.
(§3) Doses of 2 mg/kg/day were administered for 4 days.
1 lot of rats was used to determine the mortality rate brought about at T120h.

rats [2] = test: Coagulation time follow-up in rats; type: in vivo, rat
Method: as §1, §2
1 lot of rats was used to follow the coagulation time between 24 hours and 120 hours after the first injection. Actually, the coagulation time is the first parameter that varies and tends toward infinity under the action of an anticoagulant.
as §3
1 lot of rats was used to follow the coagulation time between 24 hours and 120 hours after the first injection.

[3] = Liver residue follow-up (remanence) in rats; type: in vivo; details: rat liver
Method: as §1, §2
1 lot of rats was used to carry out a metering of residue of the compound of formula (II) in the liver at T72h, T96h and T120h.
as §3
A metering of bromadiolone residue in the liver at T120h was carried out.

[4] = 3 doses of 10 mg/kg intraperitoneally at T0, T24h, T48h, T24 h
[5] = 3 doses of 10 mg/kg intraperitoneally at T0, T24h, T48h, T48 h
[6] = 3 doses of 10 mg/kg intraperitoneally at T0, T24h, T48h, T72 h

O=c1oc2ccccc2c(O)c1C(CC(O)c1ccc(-c2ccc(Br)cc2)cc1)c1ccccc1 (stereo not drawn) [Bromadiolone, bromadiolone]
Total Mortality (rats [1]; 2 mg/kg/day for 4 days, 2 mg/kg/day): 100%
Mortality Follow-Up (rats [1]; 2 mg/kg/day for 4 days, T96 h): 2 Deaths
Mortality Follow-Up (rats [1]; 2 mg/kg/day for 4 days, T120 h): 2 Deaths
Total Mortality (rats [1]; 2 mg/kg/day for 4 days, listed as reference rodenticidal product, 2 mg/kg/day): 100%
Coagulation Time Follow-Up (rats [2]; 2 mg/kg/day for 4 days, T0): Infinite
Coagulation Time Follow-Up (rats [2]; 2 mg/kg/day for 4 days, T24 h): Infinite
Coagulation Time Follow-Up (rats [2]; 2 mg/kg/day for 4 days, T48 h): Infinite
Coagulation Time Follow-Up (rats [2]; 2 mg/kg/day for 4 days, T72 h): Infinite
Coagulation Time Follow-Up (rats [2]; 2 mg/kg/day for 4 days, T96 h): Infinite
Coagulation Time Follow-Up (rats [2]; 2 mg/kg/day for 4 days, T120 h, 2 mg/kg/day): Infinite
Coagulation Time Follow-Up (rats [2]; 2 mg/kg/day for 4 days, T120 h, listed as bromadiolone, 2 mg/kg/day): infinite
Liver Residue Follow-Up ([3]; 2 mg/kg/day for 4 days, T120 h): 4.2 µg/g
liver residue of bromadiolone relative to compound of formula (II) ([3]; 120 hours after the first injection): 11 times

C/C(=C\Cc1c(O)c2ccccc2oc1=O)CCCC(C)CCCC(C)CCCC(C)C (stereo not drawn) [Compound According to the Invention, 3-phytyl-4-hydroxy-coumarin]
Total Mortality (rats [1]; 3 doses of 10 mg/kg intraperitoneally at T0, T24h, T48h, 10 mg/kg): 100%
Mortality Follow-Up (rats [1]; [4]): 2 Deaths
Mortality Follow-Up (rats [1]; [5]): 2 Deaths
Mortality Follow-Up (rats [1]; [6]): 1 Death
Total Mortality (rats [1]; 3 doses of 10 mg/kg intraperitoneally at T0, T24h, T48h, listed as compounds according to the invention, 10 mg/kg): 100%
Coagulation Time Follow-Up (rats [2]; 3 doses of 10 mg/kg intraperitoneally at T0, T24h, T48h, T0): Infinite
Coagulation Time Follow-Up (rats [2]; [4]): Infinite
Coagulation Time Follow-Up (rats [2]; [5]): Infinite
Coagulation Time Follow-Up (rats [2]; [6]): Infinite
Coagulation Time Follow-Up (rats [2]; 3 doses of 10 mg/kg intraperitoneally at T0, T24h, T48h, T96 h): Infinite
Coagulation Time Follow-Up (rats [2]; 3 doses of 10 mg/kg intraperitoneally at T0, T24h, T48h, T120 h): 120 s
concentration at 72 h ([3]; ip, 3 doses of 10 mg/kg intraperitoneally at T0, T24h, T48h, T72 h): 650 ng/g
concentration at 96 h ([3]; ip, 3 doses of 10 mg/kg intraperitoneally at T0, T24h, T48h, T96 h): 510 ng/g
concentration at 120 h ([3]; ip, 3 doses of 10 mg/kg intraperitoneally at T0, T24h, T48h, T120 h): 370 ng/g
